Source: US20240116877A1, “KIT KINASE INHIBITORS AND METHODS OF USE THEREOF” (Deciphera Pharmaceuticals, LLC, priority 2021, published 2024)
pIC50: −log10 of the molar value. Where two headings read alike, the source gives them in different places.

How the values were obtained:
[1] = biological target: c-KIT kinase (uKIT) (Homo sapiens (Human), UniProt P10721); experiment: Biochemical Assay for uKIT (coupled pyruvate kinase/lactate dehydrogenase assay); settings: Inhibition of biochemical activity of uKIT kinase; 1 mM ATP
In short: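 IC50 from percent inhibition of reaction rate over 2-3 h, relative to no-compound and known-inhibitor controls. KIT enzyme (16 nM or 4.36 nM, two sequences) ran with 1 mM ATP and 0.7 mg/mL PE4Y in Tris pH 7.5, 30° C; ATP turnover coupled to NADH loss at 340 nm.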

[2] = system: GIST 430 cells; experiment: GIST 430 Cell Proliferation Assay (resazurin); assay type: cell-based; settings: Homo sapiens; GIST430 cell proliferation
In short: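 Five thousand cells per well were exposed to serially diluted compound in complete growth medium for 115 h at 37 degrees Celsius, 5% CO2. Resazurin was then added for a further 5 h, fluorescence read at 540 nm excitation/600 nm emission, and IC50 values calculated.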

[3] = system: Ba/F3 KIT mutant cells; experiment: Ba/F3 mutant KIT Cell Proliferation Assays (resazurin); assay type: cell-based; settings: Mus musculus, BaF3
In short: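 IC50 values come from resazurin fluorescence (ex 540, em 600) after 5 h dye exposure, added as a 440 μM solution. Cells were IL-3-independent Ba/F3 expressing mutant KIT from a lentiviral vector, puromycin-selected.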

[4] = Ba/F3 KIT AYdup-V654A mutant cell proliferation, read-out: AYdup-V654A IC50
[5] = Ba/F3 KIT exon11del-V654A mutant cell proliferation, read-out: exon11del-V654A IC50
[6] = Ba/F3 KIT exon11del-Y823D mutant cell proliferation, read-out: exon11del-Y823D IC50
[7] = Ba/F3 KIT AYdup mutant cell proliferation, read-out: AYdup IC50
[8] = Ba/F3 KIT AYdup-D816G mutant cell proliferation, read-out: AYdup-D816G IC50

Chain of c-KIT kinase (uKIT) (P10721 other isoform, or with tags, fused parts or gaps): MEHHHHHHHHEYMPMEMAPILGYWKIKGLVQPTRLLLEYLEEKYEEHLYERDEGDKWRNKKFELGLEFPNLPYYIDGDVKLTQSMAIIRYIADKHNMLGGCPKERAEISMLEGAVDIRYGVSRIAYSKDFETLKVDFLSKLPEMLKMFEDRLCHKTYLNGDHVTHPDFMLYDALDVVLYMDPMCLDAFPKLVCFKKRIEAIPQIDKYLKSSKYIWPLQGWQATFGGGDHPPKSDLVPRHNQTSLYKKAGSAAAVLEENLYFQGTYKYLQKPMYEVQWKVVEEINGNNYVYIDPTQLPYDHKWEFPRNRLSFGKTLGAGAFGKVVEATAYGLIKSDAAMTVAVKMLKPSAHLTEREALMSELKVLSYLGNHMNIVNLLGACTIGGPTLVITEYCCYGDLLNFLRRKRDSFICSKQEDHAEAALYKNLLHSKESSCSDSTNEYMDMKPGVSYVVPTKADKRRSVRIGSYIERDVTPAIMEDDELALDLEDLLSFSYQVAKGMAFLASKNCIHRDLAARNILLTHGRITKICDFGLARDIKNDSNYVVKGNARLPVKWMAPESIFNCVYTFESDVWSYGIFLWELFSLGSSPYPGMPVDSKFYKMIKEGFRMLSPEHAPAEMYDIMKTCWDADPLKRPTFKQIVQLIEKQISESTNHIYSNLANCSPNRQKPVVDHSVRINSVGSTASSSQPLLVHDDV

| SMILES | pIC50 [1] | pIC50 [2] | pIC50 [3, 4] | pIC50 [3, 5] | pIC50 [3, 6] | pIC50 [3, 7] | pIC50 [3, 8] |
| --- | --- | --- | --- | --- | --- | --- | --- |
| COCCOc1cc(F)c2c(Nc3ccc(NC(=O)CC(=O)NCC(C)(C)COC)cc3)ncnc2c1 [Example 86] | 7.00 to 8.00 | 7.00 to 8.00 | 7.00 to 8.00 | 7.00 to 8.00 | < 6.00 | – | – |
| COCCOc1cc(F)c2c(Nc3ccc(NC(=O)CC(=O)NCC(C)(C)C(F)(F)F)cc3)ncnc2c1 [Example 88] | 7.00 to 8.00 | ≥ 8.00 | 7.00 to 8.00 | ≥ 8.00 | 7.00 to 8.00 | ≥ 8.00 | ≥ 8.00 |
| COCCOc1cc(F)c2c(Nc3ccc(NC(=O)CC(=O)NCC(C)(C)F)cc3)ncnc2c1 [Example 89] | 7.00 to 8.00 | 7.00 to 8.00 | 7.00 to 8.00 | 7.00 to 8.00 | 6.00 to 7.00 | – | – |
| COCCOc1cc(F)c2c(Nc3ccc(NC(=O)CC(=O)NCC4CCC4)cc3)ncnc2c1 [Example 90] | ≥ 8.00 | 7.00 to 8.00 | < 6.00 | ≥ 8.00 | 6.00 to 7.00 | – | – |
| COCCOc1cc(F)c2c(Nc3ccc(NC(=O)CC(=O)NCC4CCCCC4)cc3)ncnc2c1 [Example 91] | ≥ 8.00 | 7.00 to 8.00 | 7.00 to 8.00 | 7.00 to 8.00 | 6.00 to 7.00 | – | – |
| COCCOc1cc(F)c2c(Nc3ccc(NC(=O)CC(=O)NC4CCCC4)cc3)ncnc2c1 [Example 92] | ≥ 8.00 | ≥ 8.00 | 7.00 to 8.00 | ≥ 8.00 | 7.00 to 8.00 | ≥ 8.00 | 7.00 to 8.00 |
| COCCOc1cc(F)c2c(Nc3ccc(NC(=O)CC(=O)NC4COC4)cc3)ncnc2c1 [Example 93] | 6.00 to 7.00 | < 6.00 | < 6.00 | 6.00 to 7.00 | – | – | – |
| COCCOc1cc(F)c2c(Nc3ccc(NC(=O)CC(=O)NC4CC4)cc3)ncnc2c1 [Example 94] | 6.00 to 7.00 | 6.00 to 7.00 | 6.00 to 7.00 | 6.00 to 7.00 | – | – | – |
| COCCOc1cc(F)c2c(Nc3ccc(NC(=O)CC(=O)NC4CCC4)cc3)ncnc2c1 [Example 95] | ≥ 8.00 | ≥ 8.00 | 7.00 to 8.00 | ≥ 8.00 | 7.00 to 8.00 | ≥ 8.00 | 7.00 to 8.00 |
| COCCOc1cc(F)c2c(Nc3ccc(NC(=O)CC(=O)NC(C)C)cc3)ncnc2c1 [Example 96] | 7.00 to 8.00 | 7.00 to 8.00 | 7.00 to 8.00 | 7.00 to 8.00 | < 6.00 | – | – |
| COCCOc1cc(F)c2c(Nc3ccc(NC(=O)CC(=O)NC4CCCCC4)cc3)ncnc2c1 [Example 97] | ≥ 8.00 | ≥ 8.00 | 7.00 to 8.00 | ≥ 8.00 | 7.00 to 8.00 | ≥ 8.00 | 7.00 to 8.00 |
| COCCOc1cc(F)c2c(Nc3ccc(NC(=O)CC(=O)NCC4(C#N)CC4)cc3)ncnc2c1 [Example 98] | 7.00 to 8.00 | 6.00 to 7.00 | 6.00 to 7.00 | 7.00 to 8.00 | < 6.00 | – | – |
| COCCOc1cc(F)c2c(Nc3ccc(NC(=O)NCCCC(C)(C)C#N)cc3)ncnc2c1 [Example 99] | ≥ 8.00 | ≥ 8.00 | 7.00 to 8.00 | ≥ 8.00 | 7.00 to 8.00 | – | – |
| COCCOc1cc(F)c2c(Nc3ccc(NC(=O)CC(=O)NCCC(C)C)cc3)ncnc2c1 [Example 100] | 7.00 to 8.00 | 7.00 to 8.00 | 7.00 to 8.00 | 7.00 to 8.00 | 6.00 to 7.00 | – | – |
| COCCOc1cc(F)c2c(Nc3ccc(NC(=O)CC(=O)NC[C@H]4CCCO4)cc3)ncnc2c1 [Example 101] | 6.00 to 7.00 | 6.00 to 7.00 | 6.00 to 7.00 | 7.00 to 8.00 | < 6.00 | – | – |
| COCCOc1cc(F)c2c(Nc3ccc(NC(=O)CNC(=O)CC(C)(C)C)cc3)ncnc2c1 [Example 102] | 7.00 to 8.00 | ≥ 8.00 | 7.00 to 8.00 | 7.00 to 8.00 | 7.00 to 8.00 | ≥ 8.00 | 7.00 to 8.00 |
| COCCOc1cc(F)c2c(Nc3ccc(NC(=O)CNC(=O)C(C)(C)C)cc3)ncnc2c1 [Example 103] | 7.00 to 8.00 | ≥ 8.00 | 7.00 to 8.00 | 7.00 to 8.00 | 6.00 to 7.00 | – | – |
